Laboratory results as given in paper PMC8659078, “A Validated HPLC-PDA-HRMS Method to Investigate the Biological Stability and Metabolism of Antiparasitic Triterpenic Esters” (Molecules, 2021).
Where a name gives a salt, the structure may show the parent alone.

Tests used:
[1] = in vitro; conditions: male, mouse, pooled liver microsomes, pH 7.4
[2] = cited from earlier work
[3] = set-up: method as in earlier work; conditions: ref 3 (supplement); cited from earlier work

| Structure (SMILES) | bound to plasma proteins [2] | other results |
| --- | --- | --- |
| O=C(O)Cc1ccccc1Nc1c(Cl)cccc1Cl [Diclofenac, diclofenac sodium salt] |  | half-life [1]: 2.55 h |
| C=C(C)[C@@H]1CC[C@]2(C(=O)O)CC[C@]3(C)[C@H](CC[C@@H]4[C@@]5(C)CC[C@H](O)C(C)(C)[C@@H]5CC[C@]43C)[C@@H]12 [betulinic acid] | more than 95% |  |
| C[C@H]1[C@H](C)CC[C@]2(C(=O)O)CC[C@]3(C)C(=CC[C@@H]4[C@@]5(C)C[C@@H](O)[C@H](O)[C@@](C)(CO)[C@@H]5CC[C@]43C)[C@H]12 [asiatic acid] | more than 95% |  |
| CCN(CC)CCOC(=O)c1ccc(N)cc1 [Procaine, Procaine hydrochloride] |  | time of hydrolysis by human plasma esterases into PABA [3]: ~ 10 min |
| C[C@H]1[C@H](C)CC[C@]2(C(=O)O)CC[C@]3(C)C(=CC[C@@H]4[C@@]5(C)CC[C@H](O)C(C)(C)[C@@H]5CC[C@]43C)[C@H]12 [ursolic acid] | more than 95% |  |
| CC1(C)CC[C@]2(C(=O)O)CC[C@]3(C)C(=CC[C@@H]4[C@@]5(C)CC[C@H](O)C(C)(C)[C@@H]5CC[C@]43C)[C@@H]2C1 [oleanolic acid] | more than 95% |  |
